Experimental data: PubChem BioAssay AID977624 (Broad Institute, 2014)
Results filed as inconclusive are left out. Activity calls are given as the source filed them.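 Rule for the calls: active = compound lowering the normal-ribosome reporter at least twice as much as the humanized-ribosome reporter, growth loss under a set limit; inconclusive = no clear call, values can overlap the other calls; inactive = the rest.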

Key:
Experiment in all cases: wild-type E. coli growth inhibition versus h34 humanized strain – h34 mutant RFP, wild-type GFP, cherry-pick, dose response (AID 977624);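 note: wild-type GFP strain co-cultured with humanized h34 ribosome RFP strain in same well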
[1] = tested on: E. coli wild-type GFP strain growth, fluorescence, 24 h
[2] = tested on: E. coli h34 humanized ribosome mutant RFP strain growth, fluorescence, 24 h
[3] = tested on: E. coli mixed culture (wild-type GFP + h34 RFP) total growth, OD600, 24 h; settings: E. coli mixed culture (wild-type GFP + h34 RFP), 24 h
[4] = measured here: total OD600 growth

SMILES: CC(C)Cn1c(=O)c2ccccc2c2ccccc2c1=O
- AC50 [1]: > 100 µM (inactive)
- AC50 [2]: 7.44 µM

SMILES: CC(NCc1ccc(S(N)(=O)=O)cc1)C(=O)Nc1cc([N+](=O)[O-])ccc1Cl (stereo not given)
- AC50 [1]: > 100 µM (inactive)
- AC50 [2]: > 100 µM

SMILES: O=S(=O)(NCC1CCCO1)c1ccc(-c2ccc(Cl)cc2)cc1 (stereo not given)
- AC50 [2]: 31.8 µM

SMILES: COc1cccc(NC(=O)CSc2nc3c(sc4ccccc43)c(=O)n2CCN(C)C)c1
- AC50 [2]: > 100 µM

SMILES: COc1cc(OC)nc(Oc2ccccc2C(=O)Oc2ccc(C)cc2)n1
- AC50 [1]: > 100 µM (inactive)
- AC50 [2]: 45.6 µM

SMILES: Cc1nnc2sc(SCC(=O)Nc3ccc(Br)cc3)nn2c1=O
- AC50 [1]: > 100 µM (inactive)
- AC50 [2]: > 100 µM

SMILES: COc1ccc(NC(=O)c2cccs2)cc1C(=O)N1CCN(c2ccccc2)CC1
- AC50 [2]: > 100 µM

SMILES: CCn1c(NC(=O)c2nn(C)cc2Br)nc2ccccc21
- AC50 [1]: > 100 µM (inactive)
- AC50 [2]: 45.6 µM
- AC50 [3, 4]: 50.3 µM

SMILES: CCOc1ccccc1N(CC(=O)Nc1ccccc1F)S(=O)(=O)c1ccccc1
- AC50 [1]: > 100 µM (inactive)
- AC50 [2]: 52.1 µM

SMILES: Cc1noc(C)c1S(=O)(=O)N(Cc1ccccc1)C(C)C
- AC50 [2]: > 100 µM

SMILES: Cc1cccc(N2CCN(Cc3nc(-c4ccc(F)cc4F)oc3C)CC2)n1
- AC50 [2]: 3.83 µM

SMILES: CCCC(=O)Nc1sc2c(c1C(=O)Nc1ccccn1)CCCC2
- AC50 [2]: > 100 µM

SMILES: CCOc1ccc(OCCn2c(=S)[nH]c3c(N)ncnc32)cc1
- AC50 [1]: > 100 µM (inactive)
- AC50 [2]: 17.3 µM

SMILES: CC(=O)c1c(N2CCOCC2)nc2ccc(Cl)cc2c1-c1ccccc1
- AC50 [2]: > 100 µM

SMILES: CC(C)(C)c1ccc(-c2noc(CCC(=O)NCc3ccco3)n2)cc1
- AC50 [2]: 2.76 µM

SMILES: Cc1ccc(NS(=O)(=O)c2cc(C(=O)N3CCc4ccccc4C3)ccc2Cl)cc1
- AC50 [1]: > 100 µM (inactive)
- AC50 [2]: 32.6 µM

SMILES: Cc1ccccc1NS(=O)(=O)c1cc(C(=O)NCCC2=CCCCC2)ccc1C
- AC50 [2]: > 100 µM

SMILES: O=C(Nc1ccccc1N1CCOCC1)C1CCCCN1S(=O)(=O)c1ccccc1 (stereo not given)
- AC50 [2]: > 100 µM

SMILES: COC(=O)c1cc(S(=O)(=O)NCc2ccc3c(c2)OCO3)cn1C
- AC50 [2]: 52.4 µM

SMILES: COc1cc(NC(=O)C(c2ccccc2)c2ccccc2)c(C(=O)O)cc1OC
- AC50 [1]: > 100 µM (inactive)
- AC50 [2]: 36.4 µM

SMILES: O=C(Nc1cccc(Cl)c1)c1ccc(S(=O)(=O)NCC2CCCO2)cc1 (stereo not given)
- AC50 [1]: > 100 µM (inactive)
- AC50 [2]: 1.4 µM

SMILES: COCC#Cc1ccc2c(c1)O[C@H](CN(C)C(=O)c1ccccc1)[C@@H](C)CN([C@H](C)CO)S2(=O)=O
- AC50 [2]: > 100 µM

SMILES: COc1ccc(OC2C(=O)N(Cc3ccc4c(c3)OCO4)C2c2cccs2)cc1 (stereo not given)
- AC50 [1]: > 100 µM (inactive)
- AC50 [3, 4]: > 100 µM

SMILES: O=C(Nc1ccc(F)cc1)N1CCCCN2[C@@H](CO)[C@H](c3ccc(-c4ccncc4)cc3)[C@@H]2C1
- AC50 [1]: > 100 µM (inactive)
- AC50 [3, 4]: > 100 µM

SMILES: CC(C)n1nnnc1C1c2ccccc2C(=O)N1CCOc1ccccc1 (stereo not given)
- AC50 [2]: 5.87 µM

SMILES: CCC1=Nc2cc(C(=O)NCc3cccnc3)ccc2Sc2ccc(C)cc21
- AC50 [1]: > 100 µM (inactive)
- AC50 [2]: 32.6 µM

SMILES: O=C(Nc1ccccc1Cl)c1ccc2c(c1)N(Cc1ccc(F)cc1)C(=O)CS2=O (stereo not given)
- AC50 [1]: > 100 µM (inactive)
- AC50 [2]: 50 µM

SMILES: N#Cc1cccc(-c2ccc3c(c2)[C@H]2[C@H](CCN2C(=O)c2ccccc2F)[C@H](CO)N3)c1
- AC50 [1]: > 100 µM (inactive)
- AC50 [3, 4]: > 100 µM

SMILES: CN1CCN(C(=O)C[C@@H]2CC[C@@H]3[C@H](COC[C@H](O)CN3C(=O)Nc3ccc(Cl)cc3)O2)CC1
- AC50 [1]: > 100 µM (inactive)
- AC50 [3, 4]: > 100 µM

SMILES: C[C@@H]1CCCCO[C@@H](CN(C)C(=O)c2ccccc2)[C@H](C)CN([C@@H](C)CO)C(=O)c2cc(NC(=O)c3ccccc3)ccc2O1
- AC50 [1]: > 100 µM (inactive)
- AC50 [3, 4]: > 100 µM

SMILES: COc1cc(C(N)=O)cc(Br)c1OCc1ccccc1
- AC50 [1]: > 100 µM (inactive)
- AC50 [3, 4]: > 100 µM

SMILES: CCc1ccc(C(=O)Nc2cccnc2Oc2ccc(Cl)cc2)cc1
- AC50 [1]: > 100 µM (inactive)
- AC50 [3, 4]: > 100 µM

SMILES: O=S(=O)(c1ccccc1)N1CC[C@@H]2[C@H](CO)Nc3ccc(Br)cc3[C@@H]21
- AC50 [1]: > 100 µM (inactive)
- AC50 [3, 4]: > 100 µM

SMILES: CS(=O)(=O)Nc1ccccc1C(=O)NCCSc1ccccc1
- AC50 [2]: 51.2 µM

SMILES: CCc1cc2c(=O)n(Cc3ccccc3)c(SC3CCOC3=O)nc2s1 (stereo not given)
- AC50 [1]: > 100 µM (inactive)
- AC50 [2]: 46.4 µM

SMILES: O=C(Nc1ccccc1N1CCN(C(=O)c2ccccc2)CC1)c1ccc([N+](=O)[O-])o1
- AC50 [1]: > 100 µM (inactive)
- AC50 [2]: 1.97 µM

SMILES: O=C(O)c1cccnc1SCc1ccccc1Cl
- AC50 [1]: > 100 µM (inactive)
- AC50 [3, 4]: > 100 µM

SMILES: CCOc1ccccc1NC(=O)c1ccc2ccccc2c1
- AC50 ([1]; measured here: GFP wild-type, test 1): > 100 µM
- AC50 ([2]; E. coli wild-type GFP strain growth, fluorescence, 24 h, measured here: RFP h34 mutant, test 1): > 100 µM
- AC50 ([3]; measured here: OD600, test 1): 38.3 µM

SMILES: C=CCN(c1ccccc1)S(=O)(=O)c1cccc2cccnc12
- AC50 [2]: 4.71 µM

SMILES: O=C(CSc1ccccc1)Nc1cccc(NC(=O)c2ccco2)c1
- AC50 [1]: > 100 µM (inactive)
- AC50 [3, 4]: > 100 µM

SMILES: c1ccc(CN2CCN(C3CCCSc4ccccc43)CC2)cc1 (stereo not given)
- AC50 [1]: > 100 µM (inactive)
- AC50 [3, 4]: 50.3 µM

SMILES: COc1ccc(CCCc2nc3ccccc3[nH]2)cc1
- AC50 [1]: > 100 µM (inactive)
- AC50 [3, 4]: > 100 µM

SMILES: O=C(Nc1ccncc1)c1ccc(S(=O)(=O)Nc2ccccc2)cc1
- AC50 [2]: 46.5 µM

SMILES: COc1ccccc1-c1nnc(C2CCN(S(=O)(=O)c3ccccc3[N+](=O)[O-])CC2)o1
- AC50 [1]: > 100 µM (inactive)
- AC50 [3, 4]: > 100 µM

SMILES: O=C(c1ccc(N2CCCCC2)c([N+](=O)[O-])c1)N1CCN(c2ccccn2)CC1
- AC50 [2]: > 100 µM
